Test results reported in patent US8207357B2, “Rotaxane compound and antitumor agent” (Wan Station Co., Ltd., priority 2008, dated 2012).

Legend:
[1] = system: mouse colon tumor cell-derived cell line Colon-26; assay: Antitumor activity, viable cell count (Tetra Color ONE, absorbance 450 nm) in Colon-26; format: cell-based; conditions: Colon-26, 1.25 μM, compared with Control, FIG. 1
Experimental: (§1) As tumor cells, mouse colon tumor cell-derived cell line Colon-26, human glioblastoma-derived cell line T98G, and human malignant melanoma-derived cell line G361 were used. The tumor cells of each cell line were cultured in RPMI 1640 containing 10% FBS and 0.5% penicillin-streptomycin, as the base medium, in the presence of 5% CO2, at 37° C., under humidity conditions. The tumor cells (5.0×10^4) of each cell line having been cultured to a sufficiently confluent state were seeded in a 1.5 mL tube together with the medium. Each of the rotaxane compounds was dissolved in DMSO as a vehicle (solvent) and was added to the tube in a predetermined concentration so that the total amount is 1000 μL. Then, 100 μL of this was dispensed to each well of a 96-well microplate and was incubated in a CO2 incubator for 24 hours. Subsequently, 10 μL of a viable-cell-counting reagent (Tetra Color ONE, a product of Seikagaku Corporation) was added to each well of the 96-well microplate, and a reaction was performed in the CO2 incubator for 2 hours. The ultraviolet absorbance at 450 nm (control wavelength: 620 nm) was measured […] the reaction with a microplate reader. Note that the higher absorbance means the lager number of viable cells.
The antitumor activities of TRO-A0014 and TRO-A0015 were verified using Colon-26 as tumor cells as in the method of (5-1) described above. […]

[2] = system: human malignant melanoma-derived cell line G361; assay: Antitumor activity, viable cell count (Tetra Color ONE, absorbance 450 nm) in G361; format: cell-based; conditions: G361, at every rotaxane concentrations, FIG. 2
Experimental: as §1
The antitumor activity of TRO-A0010 was verified using T98G and G361 as tumor cells as in the above (5-1).

Substance | cell growth-inhibiting effect at a concentration of 1.25 μM [1] | cell growth-inhibiting effect compared with TRO-A0001 [2]
[2][(3,5-dimethylphenylcarboxyethyl)(3,5-dimethylphenylcarboxypropyl) ammonium-rotaxa-[2,5,8,11,13,16,19,22-octaoxa-1,12(1,2)-dibenzenacyclodocosaphane]] trifluoromethanesulfonate [TRO-A0014] | obviously observed | 
[2][bis(3,5-dimethylphenylcarboxypentyl)ammonium-rotaxa-[2,5,8,11,13,16,19,22-octaoxa-1,12(1,2)-dibenzenacyclodocosaphane]]trifluoromethanesulfonate [TRO-A0010] |  | higher than that of TRO-A0001
